Reference: PMC9854868, “Structure–Activity Relationship Studies of Substitutions of Cationic Amino Acid Residues on Antimicrobial Peptides” (Antibiotics, 2022)
Converted amounts (≈) assume the structure as drawn. Like-named read-outs stand apart in the source and are kept apart here. Square brackets hold non-standard residues; d marks the D form. Ends that are not written are not given here. Peptide text beside a SMILES is read from it. Orn = NCCC[C@H](N)C(=O)O; Dab = NCC[C@H](N)C(=O)O; Aib = CC(C)(N)C(=O)O

Experiments:
[1] = system: E. coli DH5α; format: cell-based, Escherichia coli
Protocol: (§1) The selected bacterial strains were obtained from the Biological Resource Center, NITE (NBRC; Tokyo, Japan). Escherichia coli DH5α cells were purchased from BioDynamics Laboratory, Inc. (Tokyo, Japan). The antimicrobial activities of the peptides against […] and three Gram-negative bacteria, S. aureus NBRC 13276, E. coli DH5α, P. aeruginosa NBRC 13275, and MDRP were measured using the standard broth microdilution method, as previously described. Briefly, the bacteria were inoculated and grown overnight at 37 °C on the media for other organisms i (agar medium) and then collected with the media for other organisms ii (liquid medium), according to the Japanese Pharmacopoeia 17th Edition. Each peptide was 2-fold serially diluted with an initial concentration of 4000 μM–1.56 μM in PBS for use. Next, 10 μL of the peptide solution per well was added to each well of a sterile 96-well plate. Subsequently, 90 μL per well of inoculation with 10^4 CFUs (colony forming units) per mL was added to each well, and the plate was incubated for 18 h at 35 °C.

[2] = system: P. aeruginosa NBRC 13275; format: cell-based, Pseudomonas aeruginosa; details: NBRC 13275, 18 h
Protocol: as §1

[3] = system: MDRP; format: cell-based, multidrug-resistant Pseudomonas aeruginosa; details: 18 h
Protocol: as §1

[4] = system: S. aureus NBRC 13276; format: cell-based, Staphylococcus aureus; details: NBRC 13276, 18 h
Protocol: as §1

[5] = system: human red blood cells; details: human RBCs in 172 mM Tris-HCl pH 7.6, 30 min at 37 °C, 100 to 0.39 μM, absorbance 535 nm; DMSO = 0%, M-Lycotoxin = 100%
Protocol: Human red blood cells (RBCs) were kindly supplied by the Japanese Red Cross Society (Tokyo, Japan) and were collected from volunteers under informed consent. The hemolysis test of peptides was performed using a previously reported method. In short, the RBCs were washed three times with 172 mM Tris-HCl buffer (pH = 7.6, wash buffer: WB), and 1.0 mL of sedimented erythrocytes was then transferred to 9.0 mL of WB. Then, 0.5 mL of this suspension was diluted in WB, and 50 µL of RBC suspension was incubated with 50 µL of each peptide for 30 min at 37 °C (final peptide conc from 100 to 0.39 μM). The suspensions were then centrifuged for 5 min at 400 rpm. The absorbance of the supernatant was measured at a wavelength of 535 nm. M-Lycotoxin [26] was used as a positive control, and the absorbances of the sample by treatment of DMSO and M-Lycotoxin were defined as 0 and 100%.

[6] = Digestion assay with proteinase K; format: in vitro ADME; details: proteinase K (isolated protease); proteinase K 0.002% (v/v), peptide 1 mM, 37 °C, 24 h, read-out HPLC, two independent experiments; read-out: remaining peptide after treatment with proteinase K
Protocol: (§2) The digestion assay was performed using Proteinase K of the digestive enzyme. Peptides (1 mM) were treated with 0.002% (v/v) Proteinase K and peptides were incubated at 37 °C for 2–24 h. A solution (0.1% TFA/H2O/MeCN) was added to quench the enzymatic reaction. The peptides were evaluated using analytical HPLC and a Discovery® BIO Wide Pore C18 column (25 cm × 4.6 mm, solvent A: 0.1% TFA/water, solvent B: 0.1% TFA/MeCN, flow rate: […], gradient: 10–60% gradient of solvent B over 30 min). Reproducibility was confirmed by the two independent experiments.

[7] = biological target: proteinase K (Parengyodontium album, UniProt P06873); test: Digestion assay with proteinase K; format: in vitro ADME; details: proteinase K 0.002% (v/v), peptide 1 mM, 37 °C, 2–24 h, HPLC; replacing Lys with Orn
Protocol: as §2

proteinase K, sequence (P06873 106-384): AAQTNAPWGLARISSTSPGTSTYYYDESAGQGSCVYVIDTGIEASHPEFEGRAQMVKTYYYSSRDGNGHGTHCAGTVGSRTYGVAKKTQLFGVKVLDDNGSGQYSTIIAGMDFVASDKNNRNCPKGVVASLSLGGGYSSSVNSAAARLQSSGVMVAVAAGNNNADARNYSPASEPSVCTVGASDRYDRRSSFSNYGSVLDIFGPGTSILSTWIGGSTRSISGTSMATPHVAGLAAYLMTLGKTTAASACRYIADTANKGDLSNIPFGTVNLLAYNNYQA

Molecule	MIC, Gram (–), E.Coli ([1]; DH5α, 18 h)	MIC, Gram (–), P.a. [2]	MIC, Gram (–), MDRP [3]	MIC, Gram (+), S.a. [4]	Hemolysis (concentration that showed hemolytic activity greater than 50%) [5]	remaining at 24 h, 1 mM [6]	prolongation of half life time (t1/2) against proteinase K versus peptide 1 [7]	MIC, Gram (–), E.Coli ([1]; E. coli DH5α, broth microdilution, 10^4 CFU per mL, 18 h at 35 °C, final concentration 0.39 to 100 μM, lowest concentration that completely inhibited growth)
CC[C@H](C)[C@H](NC(=O)CN)C(=O)N[C@@H](CCCCN)C(=O)N[C@@H](CCCCN)C(=O)N[C@@H](Cc1ccccc1)C(=O)N[C@@H](CC(C)C)C(=O)N[C@@H](CCCCN)C(=O)N[C@@H](CO)C(=O)NC(C)(C)C(=O)N[C@@H](CCCCN)C(=O)N[C@@H](CCCCN)C(=O)N[C@@H](Cc1ccccc1)C(=O)N[C@H](C(=O)N[C@@H](CCCCN)C(=O)NC(C)(C)C(=O)N[C@@H](Cc1ccccc1)C(=O)N[C@@H](CCCCN)C(N)=O)C(C)C [Peptide 1] (H-GIKKFLKS[Aib]KKFVK[Aib]FK-NH2)	3.13 µM (≈ 6.25 µg/mL)	3.13 µM (≈ 6.25 µg/mL)	3.13 µM (≈ 6.25 µg/mL)	12.5 µM (≈ 24.9 µg/mL)	100 µM	~20%		
CC[C@H](C)[C@H](NC(=O)CN)C(=O)N[C@@H](CCCN)C(=O)N[C@@H](CCCN)C(=O)N[C@@H](Cc1ccccc1)C(=O)N[C@@H](CC(C)C)C(=O)N[C@@H](CCCN)C(=O)N[C@@H](CO)C(=O)NC(C)(C)C(=O)N[C@@H](CCCN)C(=O)N[C@@H](CCCN)C(=O)N[C@@H](Cc1ccccc1)C(=O)N[C@H](C(=O)N[C@@H](CCCN)C(=O)NC(C)(C)C(=O)N[C@@H](Cc1ccccc1)C(=O)N[C@@H](CCCN)C(N)=O)C(C)C [Peptide 2] (H-GI[Orn][Orn]FL[Orn]S[Aib][Orn][Orn]FV[Orn][Aib]F[Orn]-NH2)	3.13 µM (≈ 5.94 µg/mL)	6.25 µM (≈ 11.9 µg/mL)	3.13 µM (≈ 5.94 µg/mL)	12.5 µM (≈ 23.7 µg/mL)	50 µM	41%	up to approximately two times	
CC[C@H](C)[C@H](NC(=O)CN)C(=O)N[C@@H](CCN)C(=O)N[C@@H](CCN)C(=O)N[C@@H](Cc1ccccc1)C(=O)N[C@@H](CC(C)C)C(=O)N[C@@H](CCN)C(=O)N[C@@H](CO)C(=O)NC(C)(C)C(=O)N[C@@H](CCN)C(=O)N[C@@H](CCN)C(=O)N[C@@H](Cc1ccccc1)C(=O)N[C@H](C(=O)N[C@@H](CCN)C(=O)NC(C)(C)C(=O)N[C@@H](Cc1ccccc1)C(=O)N[C@@H](CCN)C(N)=O)C(C)C [Peptide 3] (H-GI[Dab][Dab]FL[Dab]S[Aib][Dab][Dab]FV[Dab][Aib]F[Dab]-NH2)	3.13 µM (≈ 5.63 µg/mL)	6.25 µM (≈ 11.2 µg/mL)	6.25 µM (≈ 11.2 µg/mL)	12.5 µM (≈ 22.5 µg/mL)	25 µM			
CC[C@H](C)[C@H](NC(=O)CN)C(=O)N[C@@H](CCCNC(=N)N)C(=O)N[C@@H](CCCNC(=N)N)C(=O)N[C@@H](Cc1ccccc1)C(=O)N[C@@H](CC(C)C)C(=O)N[C@@H](CCCNC(=N)N)C(=O)N[C@@H](CO)C(=O)NC(C)(C)C(=O)N[C@@H](CCCNC(=N)N)C(=O)N[C@@H](CCCNC(=N)N)C(=O)N[C@@H](Cc1ccccc1)C(=O)N[C@H](C(=O)N[C@@H](CCCNC(=N)N)C(=O)NC(C)(C)C(=O)N[C@@H](Cc1ccccc1)C(=O)N[C@@H](CCCNC(=N)N)C(N)=O)C(C)C [Peptide 4] (H-GIRRFLRS[Aib]RRFVR[Aib]FR-NH2)	3.13 µM (≈ 6.86 µg/mL)	12.5 µM (≈ 27.4 µg/mL)	12.5 µM (≈ 27.4 µg/mL)	3.13 µM (≈ 6.86 µg/mL)	6.25 µM			
CC[C@H](C)[C@H](NC(=O)CN)C(=O)N[C@@H](Cc1c[nH]cn1)C(=O)N[C@@H](Cc1c[nH]cn1)C(=O)N[C@@H](Cc1ccccc1)C(=O)N[C@@H](CC(C)C)C(=O)N[C@@H](Cc1c[nH]cn1)C(=O)N[C@@H](CO)C(=O)NC(C)(C)C(=O)N[C@@H](Cc1c[nH]cn1)C(=O)N[C@@H](Cc1c[nH]cn1)C(=O)N[C@@H](Cc1ccccc1)C(=O)N[C@H](C(=O)N[C@@H](Cc1c[nH]cn1)C(=O)NC(C)(C)C(=O)N[C@@H](Cc1ccccc1)C(=O)N[C@@H](Cc1c[nH]cn1)C(N)=O)C(C)C [Peptide 5] (H-GIHHFLHS[Aib]HHFVH[Aib]FH-NH2)	>50 µM	>50 µM	>50 µM	>50 µM	>100 µM			
GIGKFLHSAKKFGKAFVGEIMNS-NH2 [Mag2, magainin 2, reference compound]		12.5 µM	12.5 µM	100 µM	>100 µM			3.13 µM
